We go through 9 compounds from article PMC6175296 (Clinical Pharmacology and Therapeutics, 2017).

“Also recorded” adds a separate entry of the source. Read-outs that look alike come from different tables or passages of the source.

The target in data set [1] is T1, CYP2C8 (Homo sapiens, UniProt P10632).
T1 sequence (P10632 1-490): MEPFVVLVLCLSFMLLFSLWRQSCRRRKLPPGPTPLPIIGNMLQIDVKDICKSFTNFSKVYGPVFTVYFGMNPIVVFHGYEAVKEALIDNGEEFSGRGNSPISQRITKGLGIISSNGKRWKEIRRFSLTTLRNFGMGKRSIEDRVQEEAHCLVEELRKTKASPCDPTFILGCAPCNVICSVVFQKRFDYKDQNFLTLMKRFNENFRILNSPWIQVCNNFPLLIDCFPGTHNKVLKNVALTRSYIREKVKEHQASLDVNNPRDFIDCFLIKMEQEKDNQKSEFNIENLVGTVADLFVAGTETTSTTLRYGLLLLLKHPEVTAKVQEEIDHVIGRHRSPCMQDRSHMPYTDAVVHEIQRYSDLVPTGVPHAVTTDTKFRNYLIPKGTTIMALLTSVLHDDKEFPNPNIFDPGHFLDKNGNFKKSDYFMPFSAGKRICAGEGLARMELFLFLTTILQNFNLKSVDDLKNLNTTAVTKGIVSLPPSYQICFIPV
As to the kind of experiment: In vivo CYP2C8 inhibition judged from montelukast pharmacokinetics. To be noted: montelukast as CYP2C8 probe substrate.

Data set [2] is classed as in vivo, humans.
Data set [3] has as its system CYP2C8. Particulars: read-out: CYP2C8 Ki; microsomal protein concentration 0.25 mg/mL; cited from earlier work.
For data set [4] the following is noted: cited from earlier work.
For data set [5] the following is noted: for AUC(0-inf): AUC0–∞; for tmax: median (range).
For data set [6] the following is noted: cited from earlier work. The source holds these as a separate data set.
The conditions of data set [7]: cited from earlier work. This is another data set of the same source.
The test system of the next data set is OATP1B1. Particulars: read-out: OATP1B1 Ki; “Clopidogrel 25” model; published value; cited from earlier work.
[8] abbreviates: after 300 mg clopidogrel oral, day 1, median (range).
The mark [9] stands for this setting: after 60 mg prasugrel oral, day 1, median (range).
The mark [10] stands for this setting: both, human, plasma, po, 300 mg.

For `CC(=O)Oc1cc2c(s1)CCN(C(C(=O)C1CC1)c1ccccc1F)C2` (centres unmarked) [Prasugrel], at CYP2C8 [1], the “CYP2C8 inhibition in humans (conclusion)” value is given as “not a clinically relevant CYP2C8 inhibitor; also recorded: not a significant inhibitor of CYP2C8”.
With `O=C(O)[C@H](c1ccccc1Cl)N1CCc2sccc2C1` [Clopidogrel carboxylic acid], in data set [2] (setting [8]), the AUC0-13h was 38,500 (22,000–53,400) ng·h/mL, the Cmax was 11,500 (7,410–19,700) ng/mL, the tmax is reported as 0.92 (0.92–1.5) h and the t½ is 7.3 (5.8–9.2) h.
As to `O=C(O)/C=C1/CN(C(C(=O)C2CC2)c2ccccc2F)CCC1S` (centres unmarked) [Prasugrel active metabolite (R‐138727)], in data set [2] (setting [9]), the AUC0-13h is on record as 495 (249–1090) ng·h/mL, the Cmax is listed as 428 (210–865) ng/mL, the tmax is 0.92 (0.92–0.92) h and the t½ is 3.9 (3.2–5.5) h.
As for `COC(=O)[C@H](c1ccccc1Cl)N1CC[C@@H](S)/C(=C\C(=O)O)C1` [Clopidogrel active metabolite], in data set [2] (setting [8]), the AUC0-13h is recorded as 32.0 (17.0–101) ng·h/mL, the Cmax is on record as 23.4 (12.6–80.1) ng/mL, the tmax is 0.92 (0.92–1.5) h and the t½ is listed as 3.4 (0.84–4.8) h.
One may read the Ki as the equilibrium dissociation constant of an inhibitor or competing ligand from its target. In general, AUC(0-inf) refers to total exposure, with the tail of the curve extrapolated. Low readings indicate less exposure, high ones more exposure. As usually defined, the half-life is how long it takes for the measured level to halve. Read a high half-life as slow decline. Turning to `CC(C)(O)c1ccccc1CC[C@@H](SCC1(CC(=O)O)CC1)c1cccc(/C=C/c2ccc3ccc(Cl)cc3n2)c1` [Montelukast], in the data set with CYP2C8 [3], the Ki is […]. In data set [4], the “AUC increase by clarithromycin” value is listed as 2.4 fold. Also, the “CYP2C8 inhibition in humans” value in data set [4] is listed as “not a significant inhibitor of CYP2C8”. For the same compound, the “decrease in exposure by fluconazole” value in data set [4] is 30–40%. The total exposure AUC(0-inf) was 3020 ng·h/mL in data set [5] (both, human, plasma, oral, 10 mg, placebo phase, geometric mean (geometric CV)); 5990 ng·h/mL in data set [5] (both, human, plasma, oral, clopidogrel phase, geometric mean (geometric CV)); 2800 ng·h/mL in data set [5] (both, human, plasma, oral, prasugrel phase, geometric mean (geometric CV)). For the same compound, the tmax in data set [5] (both, human, plasma, oral, 10 mg, placebo phase) worked out at 3.5 h; in data set [5] (both, human, plasma, oral, clopidogrel phase) it was 4.5 h; in data set [5] (both, human, plasma, oral, prasugrel phase), 3 h. Further, in data set [5] (both, human, plasma, oral, t½, clopidogrel phase, geometric mean (geometric CV)), the half-life is 8.2 h. Besides, the t½ in data set [5] (placebo phase, geometric mean (geometric CV)) is reported as 4.51 (18) h; in data set [5] (prasugrel phase, geometric mean (geometric CV)) it was 5.16 (20) h. Further, the “prolongation in t½” value in data set [5] (prasugrel phase vs placebo) worked out at 15%. Besides, in data set [5] (prasugrel phase vs placebo), the “t½ prolongation by prasugrel” value is 1.15 fold. Besides, the “bound to plasma proteins” value in data set [6] was “about 99.8%”. Moreover, the oral bioavailability in data set [7] was 60–70%.
Turning to `CCc1ccc(CCOc2ccc(CC3SC(=O)NC3=O)cc2)nc1` (centres unmarked) [Pioglitazone], in data set [4] (previous studies), the “AUC increase by gemfibrozil” value is recorded as “about 3 fold”. Besides, in data set [4] (previously reported), the “AUC increase by clopidogrel” value is reported as 2.0–2.1 fold.
The term AUC(0-t) denotes the area under the concentration-time curve up to a stated or last time point. A higher AUC(0-t) goes with high exposure. Take `COC(=O)[C@H](c1ccccc1Cl)N1CCc2sccc2C1` [Clopidogrel]: on CYP2C8 [1], the “CYP2C8 inhibition in humans (conclusion)” value is given as “at least a moderate inhibitor of CYP2C8; also recorded: weaker CYP2C8 inhibitor than gemfibrozil”. Further, in data set [4] (pitavastatin and simvastatin as substrates), the “clinically relevant inhibition of CYP3A4 or OATP1B1” value is on record as “not a clinically relevant inhibitor of CYP3A4 or OATP1B1”. In data set [2] (setting [10]), this compound had an AUC(0-t) of 13.2 ng·h/mL, a Cmax of 3.53 ng/mL, a half-life of 4.8 h and a tmax of 1.5 h.
On to `O=C(O)[C@H]1O[C@@H](OC(=O)[C@H](c2ccccc2Cl)N2CCc3sccc3C2)[C@H](O)[C@@H](O)[C@@H]1O` [Clopidogrel acyl‐β‐D‐glucuronide], for which, in data set [2] (setting [8]), the AUC0-13h was 16,200 (7,030–34,200) ng·h/mL, the Cmax is listed as 3,290 (1,470–9,680) ng/mL, the tmax is listed as 1.5 (0.92–3.0) h and the t½ was 4.6 (3.9–6.6) h. The Ki in the data set with OATP1B1 is 5450 nM.
For the compound `O=C1C=C2CN(C(C(=O)C3CC3)c3ccccc3F)CCC2S1` (centres unmarked) [Prasugrel inactive metabolite (R‐95913)], in data set [2] (setting [9]), the AUC0-13h is given as 495 (247–1140) ng·h/mL, the Cmax was 240 (105–692) ng/mL, the tmax is listed as 0.92 (0.92–1.5) h and the t½ is 7.1 (6.0–9.2) h.
